Data from patent publication US9212168B2 (priority 2011, dated 2015).

These compounds were tested on HCV genotype 1a replicon (assay: HCV genotype 1a replicon assay (NS3 protease activity readout)). Details: HCV genotype 1a replicon.
Format: cell-based, hepatitis C virus
Method in brief: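 Genotype 1a subgenomic replicon cells (APC89, Huh7.5) were treated with compound dose-responses in G418-free medium, 0.5% DMSO final, for 48 or 72 hours at 37° C. Lysate NS3/4a protease activity measured with 15 μM FRET substrate, 20 min at 37° C (ex 340/em 509 nm); EC50 by 4-parameter fit.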

Row | SMILES | Genotype 1a
1 | COC(=O)NC(C(=O)N1C[C@@H](OC)C[C@H]1c1nc(-c2ccc(-c3cc(Cl)c(NC(=O)c4ccc(N5CCN(C(=O)C(C)(C)C)C[C@H]5C)nc4)cc3C(F)(F)F)cc2)c[nH]1)C1CCS(=O)(=O)CC1 (single isomer, unassigned) [Example 19-18] | C (C represents pEC50 between and 9 and about 10, (EC50 between 1 nM and 0.1 nM))
2 | COC(=O)N[C@H](C(=O)N1[C@@H](C)CC[C@H]1c1nc(-c2ccc(-c3ccc(C(=O)Nc4ccc(N5CCN(C(=O)C(C)(C)C)C[C@H]5C)nc4)cc3OC(F)(F)F)cc2)c[nH]1)C(C)C [Example 18-4] | C (C represents pEC50 between and 9 and about 10, (EC50 between 1 nM and 0.1 nM))
3 | CNC(=O)N1C[C@@H](C)N(c2ccc(C(=O)Nc3cc(OC(F)(F)F)c(-c4ccc(-c5c[nH]c([C@@H]6C[C@H](C)CN6C(=O)[C@@H](NC(=O)OC(C)C)C(C)C)n5)cc4)cc3Cl)cn2)C[C@@H]1C [Example 7-5] | B (B represents pEC50 between 8 and 9 (EC50 between 1 and 10 nM))
4 | COC(=O)N[C@H](C(=O)N1C[C@@H](C)C[C@H]1c1nc(-c2ccc(-c3cc(Cl)c(NC(=O)c4ccc(N5CCN(C(=O)C6(C(F)(F)F)CC6)C[C@H]5C)nc4)cc3OC(F)(F)F)cc2)c[nH]1)C(C)C [Example 1-99] | D (D represents pEC50>10 (EC50<0.1 nM))
5 | COC(=O)N[C@H](C(=O)N1C[C@@H](C)C[C@H]1c1nc(-c2ccc(-c3ccc(C(=O)Nc4ccc(N5C[C@H](C)N(C(=O)NC(C)C)C[C@H]5C)nc4)cc3OC(F)(F)F)cc2)c[nH]1)C(C)C [Example 4-25] | C (C represents pEC50 between and 9 and about 10, (EC50 between 1 nM and 0.1 nM))
6 | COC(=O)N[C@H](C(=O)N1C[C@@H](OC)C[C@H]1c1nc(-c2ccc(-c3cc(Cl)c(NC(=O)c4ccc(N5CCN(C(=O)C(C)(C)C(=O)O)C[C@H]5C)nc4)cc3OC(F)(F)F)cc2)c[nH]1)C1CCOCC1 [Example 28-23] | C (C represents pEC50 between and 9 and about 10, (EC50 between 1 nM and 0.1 nM))
7 | COC(=O)N[C@H](C(=O)N1C[C@@H](C)C[C@H]1c1nc(-c2ccc(-c3ccc(NC(=O)c4ccc(N5CCN(C(=O)C(C)(C)C)C[C@H]5C)nc4)cc3C(F)(F)F)cc2)c[nH]1)C(C)C [Example 1-63] | D (D represents pEC50>10 (EC50<0.1 nM))
8 | COC(=O)N[C@H](C(=O)N1C[C@@H](C)C[C@H]1c1nc(-c2ccc(-c3cc(Cl)c(NC(=O)c4ccc(N5CCN(C(=O)C6CC6(Cl)Cl)C[C@H]5C)nc4)cc3OC(F)(F)F)cc2)c[nH]1)C(C)C (single isomer, unassigned) [Example 1-56] | D (D represents pEC50>10 (EC50<0.1 nM))
9 | COC(=O)N[C@H](C(=O)N1C[C@@H](C)C[C@H]1c1nc(-c2ccc(-c3ccc(C(=O)Nc4ccc(N5C[C@H](C)N(C(=O)[C@@H](C)NC(=O)C6CC6)C[C@H]5C)nc4)cc3OC(F)(F)F)cc2)c[nH]1)C(C)C [Example 4-40] | D (D represents pEC50>10 (EC50<0.1 nM))
10 | COC(=O)NC(C(=O)N1CC(C)CC1c1nc(-c2ccc(-c3cc(Cl)c(NC(=O)c4ccc(N5CCN(C(=O)C(C)(C)C)CC5C)nc4)cc3C(F)(F)F)cc2)c[nH]1)C1CC(C)OC(C)C1 (stereo not drawn) [Example 19-10] | A (A represents a pEC50 value between 6 and 8 (EC50 between 1 μM and 10 nM))
11 | CNC(=O)N1CCC[C@@]1(C)C(=O)N1C[C@@H](C)N(c2ccc(NC(=O)c3ccc(-c4ccc(-c5c[nH]c([C@@H]6C[C@H](C)CN6C(=O)[C@@H](NC(=O)OC)C(C)C)n5)cc4)c(OC(F)(F)F)c3)cn2)C[C@@H]1C [Example 4-9] | D (D represents pEC50>10 (EC50<0.1 nM))
12 | COC(=O)N[C@H](C(=O)N1C[C@@H](C)C[C@H]1c1nc(-c2ccc(-c3cc(Cl)c(NC(=O)c4ccc(N5CCN(C(=O)c6c[nH]cn6)C[C@H]5C)nc4)cc3C(F)(F)F)cc2)c[nH]1)C(C)C [Example 1-32] | D (D represents pEC50>10 (EC50<0.1 nM))
13 | COC(=O)N[C@H](C(=O)N1C[C@@H](OC)C[C@H]1c1nc(-c2ccc(-c3ccc(C(=O)Nc4ccc(N5CCN(C(=O)C(C)(C)CO)C[C@H]5C)nc4)cc3OC(F)(F)F)cc2)c[nH]1)C1CCOCC1 [Example 22-14] | D (D represents pEC50>10 (EC50<0.1 nM))
14 | COC(=O)N[C@H](C(=O)N1C[C@@H](OC)C[C@H]1c1nc(-c2ccc(-c3cc(Cl)c(NC(=O)c4ccc(N5CCN(C(=O)C(C)(C)CO)C[C@H]5C)nc4)cc3C(F)(F)F)cc2)c[nH]1)C1CCCCC1 [Example 19-15] | D (D represents pEC50>10 (EC50<0.1 nM))
15 | COC(=O)N[C@H](C(=O)N1C[C@@H](C)C[C@H]1c1nc(-c2ccc(-c3cc(Cl)c(NC(=O)c4ccc(N5CCN(C(=O)c6cn(C)cn6)C[C@H]5C)nc4)cc3OC(F)(F)F)cc2)c[nH]1)C(C)C [Example 1-33] | C (C represents pEC50 between and 9 and about 10, (EC50 between 1 nM and 0.1 nM))
16 | COC(=O)N[C@H](C(=O)N1C[C@@H](C)C[C@H]1c1nc(-c2ccc(-c3cc(Cl)c(NC(=O)c4ccc(N5CCN(C(=O)[C@H]6CCCN6C(=O)C(C)C)C[C@H]5C)nc4)cc3OC(F)(F)F)cc2)c[nH]1)C(C)C [Example 1-49] | D (D represents pEC50>10 (EC50<0.1 nM))
17 | COC(=O)N[C@H](C(=O)N1C[C@@H](C)C[C@H]1c1nc(-c2ccc(-c3cc(Cl)c(NC(=O)c4ccc(N5CCN(C(=O)NC(C)C)C[C@H]5C)nc4)cc3OC(F)(F)F)cc2)c[nH]1)C(C)C [Example 1-72] | D (D represents pEC50>10 (EC50<0.1 nM))

Same assay, conditions: Hepatitis C virus, read-out: Genotype 1a, HCV genotype 1a replicon

Row | SMILES | EC50
18 | COC(=O)N[C@H](C(=O)N1C[C@@H](C)C[C@H]1c1nc(-c2ccc(-c3cc(Cl)c(NC(=O)c4ccc(N5CCN(C(=O)C6(N)CC6(C)C)C[C@H]5C)nc4)cc3OC(F)(F)F)cc2)c[nH]1)C(C)C (stereo partly drawn) [Example 12-9] | < 0.1 nM
19 | COC(=O)N[C@@H](C(=O)N1C[C@@H](C)C[C@H]1c1nc(-c2ccc(-c3cc(Cl)c(NC(=O)c4ccc(N5CCN(C(=O)C(C)(C)C)C[C@H]5C)nc4)cc3OC(F)(F)F)cc2)c[nH]1)C1CCCCC1 [Example 13-40] | 10 to 1000 nM
20 | COC(=O)N[C@H](C(=O)N1C[C@@H]([S+](C)[O-])C[C@H]1c1nc(-c2ccc(-c3ccc(C(=O)Nc4ccc(N5CCN(C(=O)C(C)(C)C)C[C@H]5C)nc4)cc3OC(F)(F)F)cc2)c[nH]1)C(C)C (stereo partly drawn) [Example 6-19] | 0.1 to 1 nM
21 | COC(=O)N[C@H](C(=O)N1C[C@@H](C)C[C@H]1c1nc(-c2ccc(-c3cc(Cl)c(NC(=O)c4ccc(N5CCN(C(=O)C(C)(C)C)C(CO)C5)nc4)cc3OC(F)(F)F)cc2)c[nH]1)C(C)C (stereo partly drawn) [Example 14-1] | 0.1 to 1 nM
22 | CNC(=O)N1CCN(c2ccc(C(=O)Nc3cc(C(F)(F)F)c(-c4ccc(-c5c[nH]c([C@@H]6CC(C)(C)CN6C(=O)[C@@H](NC(=O)OC)C(C)C)n5)cc4)cc3F)cn2)[C@H](C)C1 [Example 3-4] | 0.1 to 1 nM
23 | COC(=O)N[C@H](C(=O)N1C[C@@H](N(C)C(C)C)C[C@H]1c1nc(-c2ccc(-c3cc(Cl)c(NC(=O)c4ccc(N5CCN(C(=O)C(C)(C)C)C[C@H]5C)nc4)cc3OC(F)(F)F)cc2)c[nH]1)C(C)C [Example 15-7] | < 0.1 nM
24 | COC(=O)N[C@H](C(=O)N1C[C@@H](C(N)=O)C[C@H]1c1nc(-c2ccc(-c3cc(Cl)c(NC(=O)c4ccc(N5CCN(C(=O)OC(C)(C)C)C[C@H]5C)nc4)cc3OC(F)(F)F)cc2)c[nH]1)C(C)C [Example 15-10] | 1 to 10 nM
25 | COC(=O)N[C@H](C(=O)N1C[C@@H](SC)C[C@H]1c1nc(-c2ccc(-c3ccc(C(=O)Nc4ccc(N5CCN(C(=O)C(C)(C)C)C[C@H]5C)nc4)cc3OC(F)(F)F)cc2)c[nH]1)C(C)C [Example 6-15] | 0.1 to 1 nM
26 | COC(=O)N[C@H](C(=O)N1[C@H](c2nc(-c3ccc(-c4ccc(C(=O)Nc5ccc(N6CCN(C(=O)[C@]7(C)CCCN7C(=O)[C@@H](NC(=O)OC)C(C)C)C[C@H]6C)nc5)cc4OC(F)(F)F)cc3)c[nH]2)C[C@@H]2CCCC[C@@H]21)C(C)C [Example 6-14] | < 0.1 nM
27 | [2H]C([2H])([2H])C1(C([2H])([2H])[2H])C[C@@H]1C(=O)N1CCN(c2ccc(NC(=O)c3ccc(-c4ccc(-c5c[nH]c([C@@H]6C[C@H]([S+](C)[O-])CN6C(=O)[C@@H](NC(=O)OC)C(C)C)n5)cc4)c(OC(F)(F)F)c3)cn2)[C@H](C)C1 (stereo partly drawn) [Example 6-20] | 1 to 10 nM
28 | COCC1(C(=O)N2CCN(c3ccc(C(=O)Nc4cc(OC(F)(F)F)c(-c5ccc(-c6c[nH]c([C@@H]7C[C@H](C)CN7C(=O)[C@@H](NC(=O)OC)C(C)C)n6)cc5)cc4Cl)cn3)[C@H](C)C2)CCC1 [Example 12-45] | < 0.1 nM
29 | CNC(=O)N1C[C@@H](C)N(c2ccc(C(=O)Nc3cc(OC(F)(F)F)c(-c4ccc(-c5c[nH]c([C@@H]6C[C@H](C)CN6C(=O)C(c6ccccc6)N(C)C)n5)cc4)cc3Cl)cn2)C[C@@H]1C (stereo partly drawn) [Example 7-11] | < 0.1 nM
30 | COC(=O)N[C@H](C(=O)N1C[C@@H](Oc2ccn(C)n2)C[C@H]1c1nc(-c2ccc(-c3cc(Cl)c(NC(=O)c4ccc(N5CCN(C(=O)C(C)(C)C)C[C@H]5C)nc4)cc3OC(F)(F)F)cc2)c[nH]1)C(C)C [Example 15-2] | 0.1 to 1 nM
31 | COC(=O)N[C@H](C(=O)N1C[C@@H](C)C[C@H]1c1nc(-c2ccc(-c3cc(Cl)c(NC(=O)c4ccc(N5CCN(C(=O)C6CC(CO)C6)C[C@H]5C)nc4)cc3OC(F)(F)F)cc2)c[nH]1)C(C)C (stereo partly drawn) [Example 12-55] | < 0.1 nM
32 | COC(=O)N[C@H](C(=O)N1C[C@@H](C)C[C@H]1c1nc(-c2ccc(-c3cc(Cl)c(NC(=O)c4ccc(N5CCN(C(=O)C(C)(C)CN)C[C@H]5C)nc4)cc3OC(F)(F)F)cc2)c[nH]1)C(C)C [Example 12-36] | 10 to 1000 nM
33 | COC(=O)N[C@H](C(=O)N1C[C@H](C)C[C@H]1c1nc(-c2ccc(-c3cc(Cl)c(C(=O)Nc4ccc(N5CCN(C(=O)C(C)(C)C)C[C@H]5C)nc4)cc3OC(F)(F)F)cc2)c[nH]1)C(C)C [Example 6-26] | 1 to 10 nM
